This assay has as its system E-cadherin expression in SW620 cells. Put plainly: E-cadherin expression, in-cell Western (ICW), SW620 cells. The assay is classed as cell-based. The note with it: for fold induction at 10 µM: SW-620, 24 h; for fold induction at 10 µM / fold change SW620 ICW: change in expression level of E-cadherin in response to 10 μM compound, 24 hours, SW620 cells; for EC50: inducement of E-cadherin expression in SW620 cells. Here is the method: SW620 and H520 cells (5×10^4/100 μL) were seeded in a 96-well plate prior to treatment. Cells were treated with 10 μM concentration of synthesized compound in quadruplicate for 24 hours in RPMI 1640 supplemented medium and 100 μg/mL penicillin-streptomycin. The cells were then fixed with 100% methanol for 20 minutes at 4° C. The wells were then washed 2 times with PBS, permeabilized in 2% bovine serum albumin (BSA) and 0.2% TritonX-100 in PBS for 30 minutes at room temperature with gentle agitation, and blocked in LI-COR blocking buffer for 30 minutes at room temperature with gentle agitation. The cells were then incubated with the following primary antibodies: anti-E-Cadherin (1:500) and anti-α-Tubulin (1:1000) diluted in blocking buffer (1:1 dilution in PBS) for 2 hours at room temperature with gentle agitation. The cells were washed 4 times in PBS-T for 5 minutes each, and then incubated with the following secondary antibodies conjugated to a fluorescent entity: IRDye 800-conjugated goat anti-rabbit IgG (1:1000) and IRDye-700-conjugated goat anti-mouse IgG (1:2000) in blocking buffer (1:1 dilution in PBS) with gentle agitation for 1 h at room temperature. The cells were washed 4 times in PBS-T for 5 minutes each followed by a single wash with PBS. All liquid was removed from the wells and the plates were visualized and analyzed on the Odyssey IR imaging system (LI-COR Biosciences).
The assay was further optimized in the following manner. The cells were washed 2 times with PBS, fixed in 100% methanol at room temperature for 15 minutes, and again washed 2 times with PBS. The cells were then incubated with the following primary antibodies: anti-E-Cadherin (1:200) and anti-α-Tubulin (1:2000) diluted in ice cold 2% bovine serum albumin (BSA) and 0.2% TritonX-100 in PBS for 1 hour at room temperature with gentle agitation. The cells were washed 2 times in PBS and then incubated with the following secondary antibodies conjugated to a fluorescent entity: Licor 800-conjugated goat anti-rabbit IgG (1:2000) and IRDye-700-conjugated goat anti-mouse IgG (1:2000) in ice cold 2% BSA and 0.2% TritonX-100 in PBS with gentle agitation for 45 minutes at room temperature. The wells were washed 2 times in PBS, dried, and analyzed as previously mentioned.
N-Acetamidoalkyl-5-arylisoxazole-3-carboxamide analogs were synthesized as described above. Changes in expression level of E-cadherin in response to 10 μM compound in SW620 cells was determined in a cell-based functional assay as described above, and the data are shown in Table III. The compound number corresponds to the compound numbers used in Table II.
EC50 of inducement of E-cadherin expression in SW620 cells was determined in a cell-based functional assay as described above, and the data are shown in Table V. The compound number corresponds to the compound numbers used in Table IV.

As usually defined, the fold induction is the ratio of treated to control signal. Take `O=C(NCCCNC(=O)c1ccc2ccccc2n1)c1cc(-c2ccccc2)on1` [Compound 86, 5-phenyl-N-(3-(quinoline-2-carboxamido)propyl)isoxazole-3-carboxamide]: the fold induction at 10 µM (Homo sapiens) stood at 3.48.

On to `O=C(NCCCNC(=O)c1cnccc1O)c1cc(-c2ccccc2)on1` [Compound 30, N-(3-(4-hydroxynicotinamido)propyl)-5-phenylisoxazole-3-carboxamide], for which, under “Homo sapiens”, the fold induction at 10 µM is 2.69.

As for `Nc1ccc(C(=O)NCCCNC(=O)c2cc(-c3ccccc3)on2)cn1` [Compound 14, N-(3-(6-aminonicotinamido)propyl)-5-phenylisoxazole-3-carboxamide], the “fold change SW620 ICW” value amounted to 0.70 fold.

As for `O=C(Cc1cccc(O)c1)NCCNC(=O)c1cc(-c2ccccc2)on1` [Compound 7, N-(2-(2-(3-hydroxyphenyl)acetamido)ethyl)-5-phenylisoxazole-3-carboxamide], where the note is “Homo sapiens”, the fold induction at 10 µM was determined as 2.92.

As to `Cc1ncccc1C(=O)NCCCNC(=O)c1cc(-c2cccs2)on1` [Compound 47, N-(3-(2-methylnicotinamido)propyl)-5-(thiophen-2-yl)isoxazole-3-carboxamide], where the note is “Homo sapiens”, the fold induction at 10 µM was 2.72.

Take `N[C@@H](Cc1c[nH]c2ccccc12)C(=O)NCCCNC(=O)c1cc(-c2ccccc2)on1` [Compound 32, (S)—N-(3-(2-amino-3-(1H-indol-3-yl)propanamido)propyl)-5-phenylisoxazole-3-carboxamide]: the fold induction at 10 µM (Homo sapiens) was determined as 2.7.

For the compound `COc1ncccc1C(=O)NCCCNC(=O)c1cc(-c2ccccc2)on1` [Compound 70, N-(3-(2-methoxynicotinamido)propyl)-5-phenylisoxazole-3-carboxamide], the fold induction at 10 µM (Homo sapiens) turned out to be 2.62.

As for `N[C@@H](Cc1c[nH]c2ccccc12)C(=O)NCCNC(=O)c1cc(-c2ccccc2)on1` [Compound 6, (S)—N-(2-(2-amino-3-(1H-indol-3-yl)propanamido)ethyl)-5-phenylisoxazole-3-carboxamide], under “Homo sapiens”, the fold induction at 10 µM was found to be 0.92.

On to `N#Cc1ccnc(C(=O)NCCCNC(=O)c2cc(-c3ccccc3)on2)c1` [Compound 93, N-(3-(4-cyanopicolinamido)propyl)-5-phenylisoxazole-3-carboxamide], for which the fold induction at 10 µM (Homo sapiens) stood at 2.88.

For `O=C(NCCCNC(=O)c1cccc(Br)n1)c1cc(-c2cccs2)on1` [Compound 45, N-(3-(6-bromopicolinamido)propyl)-5-(thiophen-2-yl)isoxazole-3-carboxamide], the fold induction at 10 µM (Homo sapiens) was determined as 3.35.

As for `Cc1nc(C(=O)NCCCNC(=O)c2cc(-c3ccccc3)on2)no1` [Compound 91, 5-methyl-N-(3-(5-phenylisoxazole-3-carboxamido)propyl)-1,2,4-oxadiazole-3-carboxamide], where the note is “Homo sapiens”, the fold induction at 10 µM turned out to be 3.47.

Turning to `O=C(NCCNC(=O)c1cc(-c2ccccc2)on1)c1cc(O)cc(Br)c1` [Compound 10, N-(2-(3-bromo-5-hydroxybenzamido)ethyl)-5-phenylisoxazole-3-carboxamide], the fold induction at 10 µM (Homo sapiens) amounted to 2.35.

As usually defined, the EC50 is the concentration that produces a half-maximal response. A higher EC50 goes with lower potency in that assay. Consider `O=C(NCCCNC(=O)c1cc(-c2ccccc2)on1)c1cc(-c2ccccc2)ccn1` [Compound 119, 5-phenyl-N-(3-(4-phenylpicolinamido)propyl)isoxazole-3-carboxamide], for which the fold induction at 10 µM (Homo sapiens) came to 4.13. The compound also came in with an EC50 (Homo sapiens, SW-620) of 5.64 µM.

Regarding `O=C(NCCCNC(=O)c1cc(-c2ccccc2)on1)c1ccc(O)cn1` [Compound 58, N-(3-(5-hydroxypicolinamido)propyl)-5-phenylisoxazole-3-carboxamide], the fold induction at 10 µM (Homo sapiens) came to 3.57.

Turning to `O=C(NCCCNC(=O)c1cc(-c2cccs2)on1)c1ccnc(O)c1` [Compound 37, N-(3-(2-hydroxyisonicotinamido)propyl)-5-(thiophen-2-yl)isoxazole-3-carboxamide], the fold induction at 10 µM (Homo sapiens) came out at 1.83.

With `O=C(NCCCNC(=O)c1cnn[nH]1)c1cc(-c2cccs2)on1` [Compound 104, N-(3-(1H-1,2,3-triazole-5-carboxamido)propyl)-5-(thiophen-2-yl)isoxazole-3-carboxamide], the fold induction at 10 µM (Homo sapiens) worked out at 3.13.

In the case of `O=C(NCCCNC(=O)c1cccc(Cl)n1)c1cc(-c2cccs2)on1` [Compound 81, N-(3-(6-chloropicolinamido)propyl)-5-(thiophen-2-yl)isoxazole-3-carboxamide], the fold induction at 10 µM (Homo sapiens) was determined as 3.09.

As for `Cc1ccc(C(=O)NCCCNC(=O)c2cc(-c3ccccc3)on2)o1` [Compound 38, N-(3-(5-methylfuran-2-carboxamido)propyl)-5-phenylisoxazole-3-carboxamide], under “Homo sapiens”, the fold induction at 10 µM turned out to be 3.37.

Turning to `O=C(NCCNC(=O)c1cc(-c2ccccc2)on1)c1cccnc1` [Compound 3, N-(2-(nicotinamido)ethyl)-5-phenylisoxazole-3-carboxamide], the fold induction at 10 µM (Homo sapiens) was 3.05. The same compound gave an EC50 (Homo sapiens, SW-620) of 7.1 µM.

As to `COC(=O)c1ccc(C(=O)NCCCNC(=O)c2cc(-c3ccccc3)on2)nc1` [Compound 66, methyl 6-((3-(5-phenylisoxazole-3-carboxamido)propyl)carbamoyl)nicotinate], the fold induction at 10 µM (Homo sapiens) came to 1.55.

For `CCOc1ncccc1C(=O)NCCCNC(=O)c1cc(-c2cccs2)on1` [Compound 53, N-(3-(2-ethoxynicotinamido)propyl)-5-(thiophen-2-yl)isoxazole-3-carboxamide], the fold induction at 10 µM (Homo sapiens) worked out at 3.52.

Turning to `COc1ccc(C(=O)NCCCNC(=O)c2cc(-c3ccccc3)on2)c(OC)n1` [Compound 60, N-(3-(2,6-dimethoxynicotinamido)propyl)-5-phenylisoxazole-3-carboxamide], for the setting “Homo sapiens”, the fold induction at 10 µM was determined as 2.32.

For the compound `O=C(NCCCNC(=O)c1cc(-c2cccs2)on1)c1cc(Cl)ccn1` [Compound 40, N-(3-(4-chloropicolinamido)propyl)-5-(thiophen-2-yl)isoxazole-3-carboxamide], the fold induction at 10 µM (Homo sapiens) was determined as 1.95.

In the case of `Cc1cccnc1C(=O)NCCCNC(=O)c1cc(-c2ccccc2)on1` [Compound 71, N-(3-(3-methylpicolinamido)propyl)-5-phenylisoxazole-3-carboxamide], the fold induction at 10 µM (Homo sapiens) came out at 3.61.

For the compound `COc1ncccc1C(=O)NCCCNC(=O)c1cc(-c2cccs2)on1` [Compound 52, N-(3-(2-methoxynicotinamido)propyl)-5-(thiophen-2-yl)isoxazole-3-carboxamide], where the note is “Homo sapiens”, the fold induction at 10 µM came to 3.99.

Turning to `Cc1cncc(C(=O)NCCCNC(=O)c2cc(-c3ccccc3)on2)n1` [Compound 111, N-(3-(6-methylpyrazine-2-carboxamido)propyl)-5-phenylisoxazole-3-carboxamide], for the setting “Homo sapiens”, the fold induction at 10 µM amounted to 4.13. The compound further returned an EC50 (Homo sapiens, SW-620) of 7.2 µM.

Consider “N-(3-(5-chlorofuran-2-carboxamido)propyl)-5-phenylisoxazole-3-carboxamide [Compound 113]”, for which the “fold change SW620 ICW” value was 4.09 fold and it took 4.59 µM to reach a half-maximal effect (EC50).

`CCc1ccc(C(=O)NCCCNC(=O)c2cc(-c3ccccc3)on2)o1` [Compound 115, N-(3-(5-ethylfuran-2-carboxamido)propyl)-5-phenylisoxazole-3-carboxamide]: the fold induction at 10 µM (Homo sapiens) turned out to be 3.83.

With `O=C(NCCCNC(=O)c1cc(-c2ccccc2)on1)c1cc(Cl)ccn1` [Compound 57, N-(3-(4-chloropicolinamido)propyl)-5-phenylisoxazole-3-carboxamide], the fold induction at 10 µM (Homo sapiens) is 3.3.

The values are drawn from patent US9783510B2, “Small molecule mediated transcriptional induction of E-cadherin” (Vanderbilt University, priority 2014, dated 2017).
